We go through two compounds from patent publication US10961309B2, “Reducing systemic regulatory T cell levels or activity for treatment of disease and injury of the CNS” (Yeda Research and Development Co. Ltd, priority 2014, dated 2021).

In assay [1] the test system is IFN-γ-expressing immune cells in the CP. Briefly: Flow cytometry of CP IFN-γ-expressing immune cells. The settings on record: weekly-GA, 5XFAD AD-Tg mice, end of 1st week of regimen. Type of assay: in vivo, mouse. Here is the method:
Mice were transcardially perfused with PBS, and tissues were treated as previously described (Baruch et al, 2013). Brains were dissected and the different brain regions were removed under a dissecting microscope (Stemi DV4; Zeiss) in PBS, and tissues were dissociated using the gentleMACS™ dissociator (Miltenyi Biotec). Choroid plexus tissues were isolated from the lateral, third and fourth ventricles of the brain, incubated at 37° C. for 45 min in PBS (with Ca^2+/Mg^2+) containing 400 U/ml collagenase type IV (Worthington Biochemical Corporation), and then manually homogenized by pipetting. Spleens were mashed with the plunger of a syringe and treated with ACK (ammonium chloride potassium) lysing buffer to remove erythrocytes. In all cases, samples were stained according to the manufacturers' protocols. All samples were filtered through a 70 μm nylon mesh, and blocked with anti-Fc CD16/32 (1:100; BD Biosciences). For intracellular staining of IFN-γ, the cells were incubated with […] (10 ng/ml; Sigma-Aldrich) and ionomycin (250 ng/ml; Sigma-Aldrich) for 6 h, and Brefeldin-A (10 μg/ml; Sigma-Aldrich) was added for the last 4 h. Intracellular labeling of cytokines was done with BD Cytofix/Cytoperm™ Plus fixation/permeabilization kit (cat. no. 555028). […] Cells were analyzed on an LSRII cytometer (BD Biosciences) using FlowJo software. […]
On the technique in general: In flow cytometry, cells or beads pass a laser one at a time.

A further assay deals with Aβ plaques. Briefly: Aβ plaque quantitation (immunohistochemistry). Type of assay: in vivo, mouse. Here is the method: Tissue processing and immunohistochemistry were performed on paraffin embedded sectioned mouse (6 μm thick) and human (10 μm thick) brains. For human ICAM-1 staining, primary mouse anti-ICAM (1:20 Abcam; ab2213) antibody was used. Slides were incubated for 10 min with 3% H2O2, and a secondary biotin-conjugated anti-mouse antibody was used, followed by biotin/avidin amplification with Vectastain ABC kit (Vector Laboratories). Subsequently, 3,3′-diaminobenzidine (DAB substrate) (Zytomed kit) was applied; slides were dehydrated and mounted with xylene-based mounting solution. For tissue stainings, mice were transcardially perfused with PBS prior to tissue excision and fixation. CP tissues were isolated under a dissecting microscope (Stemi DV4; Zeiss) from the lateral, third, and fourth ventricles of the brain. For whole mount CP staining, tissues were fixated with 2.5% paraformaldehyde (PFA) for 1 hour at 4° C., and subsequently transferred to PBS containing 0.05% sodium azide. Prior to staining, the dissected tissues were washed with PBS and blocked (20% horse serum, 0.3% Triton X-100, and PBS) for 1 h at room temperature. Whole mount staining with primary antibodies (in PBS containing 2% horse serum and 0.3% Triton X-100), or secondary antibodies, was performed for 1 h at room temperature. Each step was followed by three washes in PBS. The tissues were applied to slides, mounted with Immu-mount (9990402, from Thermo Scientific), and sealed with cover-slips. For staining of sectioned brains, two different tissue preparation protocols (paraffin embedded or microtomed free-floating sections) were applied, as previously described (Baruch et al, 2013; Kunis et al, 2013). The following primary antibodies were used: mouse anti-Aβ (1:300, Covance, #SIG-39320); rabbit anti-GFP (1:100, MBL, #598); rat anti-CD68 (1:300, eBioscience, #14-0681); rat anti-ICAM-1 (1:200, Abcam, #AB2213); goat anti-GFP (1:100, Abcam, #ab6658); rabbit anti-IBA-1 (1:300, Wako, #019-19741); goat anti-IL-10 (1:20, R&D systems, #AF519); rat anti-Foxp3 (1:20, eBioscience, #13-5773-80); rabbit anti-CD3 (1:500, Dako, #IS503); mouse anti-ZO-1, mouse anti-E-Cahedrin, and rabbit anti-Claudin-1 (all 1:100, Invitrogen, #33-9100, #33-4000, #51-9000); rabbit anti-GFAP (1:200, Dako, #Z0334). Secondary antibodies included: Cy2/Cy3/Cy5-conjugated donkey anti-mouse/goat/rabbit/rat antibodies (1:200; all from Jackson Immunoresearch). The slides were exposed to Hoechst nuclear staining (1:4000; Invitrogen Probes) for 1 min. Two negative controls were routinely used in immunostaining procedures, staining with isotype control antibody followed by secondary antibody, or staining with secondary antibody alone. For Foxp3 intracellular staining, antigen retrieval from paraffin-embedded slides was performed using Retreivagen Kit (#550524, #550527; BD Pharmingen™). Microscopic analysis, was performed using a fluorescence microscope (E800; Nikon) or laser-scanning confocal microscope (Carl Zeiss, Inc.). The fluorescence microscope was equipped with a digital camera (DXM 1200F; Nikon), and with either a 20× NA 0.50 or 40× NA 0.75 objective lens (Plan Fluor; Nikon). The confocal microscope was equipped with LSM 510 laser scanning capacity (three lasers: Ar 488, HeNe 543, and HeNe 633). Recordings were made on postfixed tissues using acquisition software (NIS-Elements, F3 [Nikon] or LSM [Carl Zeiss, Inc.]). For quantification of staining intensity, total cell and background staining was measured using ImageJ software (NIH), and intensity of specific staining was calculated, as previously described (Burgess et al, 2010). Images were cropped, merged, and optimized using Photoshop CS6 13.0 (Adobe), and were arranged using Illustrator CS5 15.1 (Adobe).
From each brain, 6 μm coronal slices were collected, and eight sections per mouse, from four different pre-determined depths throughout the region of interest (dentate gyrus or cerebral cortex) were immunostained. […]

For a further assay, the system named is GFP+ mo-MΦ. Briefly: Homing of GFP+ mo-MΦ in AD-Tg/CX3CR1GFP/+ BM chimeras. Format: in vivo, mouse. Here is the method:
Tissue processing and immunohistochemistry were performed on paraffin embedded sectioned mouse (6 μm thick) and human (10 μm thick) brains. For human ICAM-1 staining, primary mouse anti-ICAM (1:20 Abcam; ab2213) antibody was used. Slides were incubated for 10 min with 3% H2O2, and a secondary biotin-conjugated anti-mouse antibody was used, followed by biotin/avidin amplification with Vectastain ABC kit (Vector Laboratories). Subsequently, 3,3′-diaminobenzidine (DAB substrate) (Zytomed kit) was applied; slides were dehydrated and mounted with xylene-based mounting solution. For tissue stainings, mice were transcardially perfused with PBS prior to tissue excision and fixation. CP tissues were isolated under a dissecting microscope (Stemi DV4; Zeiss) from the lateral, third, and fourth ventricles of the brain. […] Microscopic analysis, was performed using a fluorescence microscope (E800; Nikon) or laser-scanning confocal microscope (Carl Zeiss, Inc.). The fluorescence microscope was equipped with a digital camera (DXM 1200F; Nikon), and with either a 20× NA 0.50 or 40× NA 0.75 objective lens (Plan Fluor; Nikon). […] For quantification of staining intensity, total cell and background staining was measured using ImageJ software (NIH), and intensity of specific staining was calculated, as previously described (Burgess et al, 2010). […]

Assay [2] has as its system APP/PS1 mouse model of AD. As to conditions: weekly administration regimen (Butovsky et al, 2006); cited from earlier work.

Entries after “also recorded” stand apart in the source; their conditions may differ.

For Glatiramer acetate [GA], the “IFN-γ-producing cells at the CP” value in assay [1] is “increase”. The Aβ plaque load entry in the assay with Aβ plaques (daily-GA 100 μg s.c. for 1 month, 5XFAD AD-Tg mice) is “did not show any beneficial effect, or showed a moderate adverse effect on plaque load”. Besides, in the assay on Aβ plaques (weekly-GA, 5XFAD AD-Tg mice), the “Aβ plaque load (percentage of total area of hippocampal dentate gyrus)” value is “robust effect; also recorded: reduction in Aβ plaque load” and the “mean Aβ plaque numbers” value is recorded as “reduction”. Further, in the assay on GFP+ mo-MΦ (weekly-GA vs vehicle-treated AD-Tg/CX3CR1GFP/+ controls), the “homing of GFP+ mo-MΦ to the CP and adjacent ventricular spaces” value is “increased homing”. The “GFP+ mo-MΦ in the brain parenchyma (immunohistochemistry)” value in the assay on GFP+ mo-MΦ (weekly-GA, AD-Tg/CX3CR1GFP/+ chimeras) is listed as “accumulation at sites of cerebral plaque formation”. In addition, the “effect in the APP/PS1 mouse model of AD” value in assay [2] is reported as “therapeutic effect”.

Consider `CC1=C(/C=C/C(C)=C/C=C/C(C)=C/C(=O)O)C(C)(C)CCC1` [ATRA, All-trans retinoic acid], for which the “cerebral Aβ plaque burden” value in the assay on Aβ plaques (3 weeks after last ATRA injection, AD-Tg mice) is reported as 2-3 fold increase.
